pEC50, pIC50: −log10 of the molar value.
Legend:
CD38 [1] = target: T1, CD38 (Homo sapiens, UniProt P28907); experiment: inhibition of recombinant CD38 enzyme activity (Figure S5H); format: biochemical
T1 construct: recombinant CD38 (reCD38)
T1 sequence (P28907 1-300): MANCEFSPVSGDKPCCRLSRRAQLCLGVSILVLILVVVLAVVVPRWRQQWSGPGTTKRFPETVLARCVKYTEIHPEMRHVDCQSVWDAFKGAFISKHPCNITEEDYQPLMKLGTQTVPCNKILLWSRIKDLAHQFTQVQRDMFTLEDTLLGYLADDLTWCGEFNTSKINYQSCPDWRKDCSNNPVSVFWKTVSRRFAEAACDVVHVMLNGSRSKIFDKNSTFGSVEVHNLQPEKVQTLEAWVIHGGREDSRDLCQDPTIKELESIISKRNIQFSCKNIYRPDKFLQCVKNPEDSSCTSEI

SARM1 [2] = target: SARM1 (Homo sapiens, UniProt Q6SZW1); experiment: biochemical
SARM1 [3] = target: T2, SARM1 (Homo sapiens, UniProt Q6SZW1); experiment: εNAD NADase assay and HPLC activity assays of immunopurified SARM1 (activation); dose-response in lysate; format: biochemical
T2 construct: SARM1-FLAG, immunoprecipitated; SARM1-dN (N-terminal mitochondria localization signal truncated)
T2 sequence (Q6SZW1 28-724): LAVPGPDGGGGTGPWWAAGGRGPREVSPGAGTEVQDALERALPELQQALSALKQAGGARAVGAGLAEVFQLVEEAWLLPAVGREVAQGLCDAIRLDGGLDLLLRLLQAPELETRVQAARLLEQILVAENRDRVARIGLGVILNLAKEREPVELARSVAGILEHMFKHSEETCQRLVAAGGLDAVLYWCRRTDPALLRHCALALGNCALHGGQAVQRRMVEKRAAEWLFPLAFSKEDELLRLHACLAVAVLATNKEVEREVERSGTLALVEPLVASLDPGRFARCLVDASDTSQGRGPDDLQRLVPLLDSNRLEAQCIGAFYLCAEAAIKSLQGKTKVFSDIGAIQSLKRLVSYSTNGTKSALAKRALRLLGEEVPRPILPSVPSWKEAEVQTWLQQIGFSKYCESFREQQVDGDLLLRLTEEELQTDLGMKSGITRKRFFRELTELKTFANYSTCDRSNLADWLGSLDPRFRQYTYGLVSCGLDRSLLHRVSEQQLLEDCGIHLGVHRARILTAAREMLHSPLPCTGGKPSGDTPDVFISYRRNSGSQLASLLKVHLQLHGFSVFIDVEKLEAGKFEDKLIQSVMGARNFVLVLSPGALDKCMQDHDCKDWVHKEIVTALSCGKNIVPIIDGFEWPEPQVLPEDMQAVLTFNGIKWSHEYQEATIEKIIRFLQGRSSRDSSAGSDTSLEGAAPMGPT

CD38 [4] = target: T1, CD38; experiment: inhibition of recombinant CD38 enzyme activity (Figure S5H); format: biochemical; remark: listed apart in the source

SMILES	pIC50 (CD38 [1])	pEC50 (SARM1 [2])	pEC50 (SARM1 [3])	inhibition of recombinant CD38 enzyme activity (Figure S5H) (CD38 [4])
NC(=O)c1ccc[n+]([C@@H]2O[C@H](COP(O)(O)=S)[C@@H](O)[C@@H]2F)c1 [CZ-48]	~5.00	~4.30	–	–
NC(=O)c1ccc[n+]([C@@H]2O[C@H](COP(=O)(O)O)[C@@H](O)[C@H]2O)c1 [NMN]	–	–	~4.30	In contrast to SARM1, recombinant CD38 (reCD38) was inhibited by both NMN (Figure S5H) and CZ-48
